{"source": "patent US20220220041A1", "about": "“USE OF UREA AS AN ANTIMICROBIAL ADDITIVE IN AN AQUEOUS SUSPENSION” (Omya International AG, priority 2019, published 2022)", "key": {"[1]": {"system": "Escherichia coli (DSMZ 46295)", "assay": "Example 3 preservation efficacy: H60 slurry with industrial grade urea solution, E. coli inoculum, TVC", "assay_type": "cell-based", "conditions": "industrial grade urea 5.5%, calcium carbonate 69%, water 25.5% w/w, 30° C.", "procedure": "(§1) All quoted bacterial counts (Total viable counts (TVC) values), unless otherwise indicated, are given in cfu/ml and determined after at least 2 days following plate-out and incubation at 30° C. and in accordance with the counting method described in “Bestimmung von aerobe mesophilen Keimen”, Schweizerisches Lebensmittelbuch, chapter 56, section 7.01, edition of 1985, revised version of 1988.\n(§2) Unless otherwise stated, per tryptic soy agar plate (TSA, prepared using BD 236950) 0.1 ml of a solution or suspension is plated. Counts from 10000 cfu/ml to 99999 cfu/ml are reported as >1E4 cfu/ml. Counts from 100000 cfu/ml to 999999 cfu/ml are reported as >1E5 cfu/ml. Counts above 1000000 cfu/ml are reported as >1E6 cfu/ml.\n(§3) For the preparation of inoculum with a single bacterial species (for example Escherichia coli (DSMZ 46295) or Pseudomonas putida), bacteria are spread onto Tryptic soy broth agar (BD, 236950) by dilution streaking followed by incubation at 30° C. for at least 24 h until colonies appear. Overnight cultures are generated by inoculation of 3 ml Tryptic soy broth (Fluka 22092) with a single colony followed incubation with agitation at […] at 30° C. for 24 h.\n(§4) 50 g sterile calcium carbonate slurry (H60) with a solid content of 77.3 wt.-%, based on the total weight of the H60 slurry is supplemented with industrial grade 50% (w/w) urea solution (Yara Canda Inc.) or water to different final concentrations. The industrial grade contained natural resident (i.e. bacteria in a non-growing state) bacteria. The bacterial of the industrial urea burden is 5 cfu/3 ml as determined by TVC. The species are identified by characterizing the grown colonies from the TVC by 16 S RNA sequencing, known to the person skilled in the art.\n(§5) The samples are further artificially inoculated with 1 ml non-sterile calcium carbonate slurry (H60), 1 ml non-sterile calcium carbonate slurry (H90), 0.02 ml overnight culture of Escherichia coli (DSMZ 46295) and 0.02 ml overnight culture Pseudomonas putida. The control sample are not inoculated. […]"}, "[2]": {"system": "Escherichia coli (DSMZ 46295)", "assay": "Example 2 preservation efficacy: H60 slurry with 61 wt.-% urea solution, E. coli inoculum, TVC", "assay_type": "cell-based", "procedure": "as §1, §2, §3\n(§6) 50 g sterile slurry H60 with a solid content of 76.5 wt.-%, based on the total weight of the H60 slurry is supplemented with different amounts of 61 wt.-% urea solution or water. The samples are then inoculated with 1 ml non-sterile calcium carbonate slurry (H60), 1 ml non-sterile calcium carbonate slurry (H90), 0.02 ml overnight culture of Escherichia coli (DSMZ 46295) and 0.02 ml overnight culture of Pseudomonas putida. The control samples are not inoculated. Samples are incubated at 30° C. and the TVC and pH are determined at various time points (0 day, 1 day, 4, days, 8 days, 9 days and/or 13 days)."}, "[3]": {"system": "total viable bacteria, not inoculated", "assay": "Example 2 preservation efficacy: H60 slurry with 61 wt.-% urea solution, control samples not inoculated, TVC", "assay_type": "cell-based", "conditions": "inoculum none, 30° C.", "procedure": "as §1, §2, §6"}, "[4]": {"system": "natural resident bacteria of industrial grade urea, not inoculated", "assay": "Example 3 preservation efficacy: H60 slurry with industrial grade urea solution, not inoculated, TVC", "assay_type": "cell-based", "conditions": "industrial grade urea 5.5%, calcium carbonate 69%, water 25.5% w/w, inoculum none, 30° C.", "procedure": "as §1, §2, §4\nThe species identified are Sporosarcina koreensis, (Gram positive, urease positive, spore forming), Paenibacillus sp., (Gram positive, urease positive, spore forming) and Halobacillus trueperi (Gram positive, urease negative, spore forming).\nas §5"}, "[5]": {"system": "non-sterile calcium carbonate slurry (H60), environmental bacteria", "assay": "Example 3 preservation efficacy: H60 slurry with industrial grade urea solution, non-sterile H60 inoculum, TVC", "assay_type": "cell-based", "conditions": "industrial grade urea 5.5%, calcium carbonate 69%, water 25.5% w/w, 30° C.", "procedure": "as §1, §2\n(§7) Non-sterile slurries (H60 or H90) contain contamination with environmental bacteria at a TVC>100000 cfu/ml. The contamination originates spontaneously and a bacterial burden of at least>100000 cfu/ml is confirmed prior use as inoculum by TVC. The following bacterial species are known to occur, as identified by 16S RNA sequencing or MALDI-TOF-MS analysis: Rhizobium radiobacter, Brevundimonas intermedia, Brevundimonas diminiuta, Sphingomonas sp., Pseudomonas stutzeri, Pseudomonas sp., Comomonas aquatic.\nas §4, §5"}, "[6]": {"system": "non-sterile calcium carbonate slurry (H90), environmental bacteria", "assay": "Example 3 preservation efficacy: H60 slurry with industrial grade urea solution, non-sterile H90 inoculum, TVC", "assay_type": "cell-based", "conditions": "industrial grade urea 5.5%, calcium carbonate 69%, water 25.5% w/w, 30° C.", "procedure": "as §1, §2, §7, §4, §5"}, "rats": {"system": "rats", "conditions": "cited from earlier work"}, "[7]": {"conditions": "Table 2, urea 2.75%, calcium carbonate 73.1%, water 24.15% w/w, inoculum E. coli, 30° C."}, "[8]": {"conditions": "Table 2, urea 7.6%, calcium carbonate 67.1%, water 25.3% w/w, inoculum E. coli, 30° C."}, "[9]": {"conditions": "Table 3, urea 0.65%, calcium carbonate 75.7%, water 23.65% w/w, inoculum E. coli, 30° C."}, "[10]": {"conditions": "Table 3, urea 1.28%, calcium carbonate 74.9%, water 23.82% w/w, inoculum E. coli, 30° C."}, "[11]": {"conditions": "Table 3, urea 2.75%, calcium carbonate 73.1%, water 24.15% w/w, inoculum E. coli, 30° C."}, "[12]": {"conditions": "Table 2, urea 2.75%, calcium carbonate 73.1%, water 24.15% w/w"}, "[13]": {"conditions": "Table 2, urea 7.6%, calcium carbonate 67.1%, water 25.3% w/w"}, "[14]": {"conditions": "Table 3, urea 1.28%, calcium carbonate 74.9%, water 23.82% w/w"}, "[15]": {"conditions": "Table 3, urea 2.75%, calcium carbonate 73.1%, water 24.15% w/w"}}, "data": [{"smiles": "NC(N)=O", "note": "[urea]", "values": [{"measurement": "TVC cfu/ml Day 1", "setting": "[1]", "result": "<100", "unit": "cfu/ml"}, {"measurement": "TVC cfu/ml Day 4", "setting": "[1]", "result": "<100", "unit": "cfu/ml"}, {"measurement": "TVC cfu/ml Day 8", "setting": "[1]", "result": "<100", "unit": "cfu/ml"}, {"measurement": "TVC cfu/ml Day 11", "setting": "[1]", "result": "<100", "unit": "cfu/ml"}, {"measurement": "TVC cfu/ml Day 13", "setting": "[1]", "result": "<100", "unit": "cfu/ml"}, {"measurement": "TVC cfu/ml Day 1", "setting": "[2]; [7]", "result": "<100", "unit": "cfu/ml"}, {"measurement": "TVC cfu/ml Day 4", "setting": "[2]; [7]", "result": "<100", "unit": "cfu/ml"}, {"measurement": "TVC cfu/ml Day 8", "setting": "[2]; [7]", "result": 500, "unit": "cfu/ml"}, {"measurement": "TVC cfu/ml Day 13", "setting": "[2]; [7]", "result": "<100", "unit": "cfu/ml"}, {"measurement": "TVC cfu/ml Day 1", "setting": "[2]; [8]", "result": "<100", "unit": "cfu/ml"}, {"measurement": "TVC cfu/ml Day 4", "setting": "[2]; [8]", "result": "<100", "unit": "cfu/ml"}, {"measurement": "TVC cfu/ml Day 8", "setting": "[2]; [8]", "result": "<100", "unit": "cfu/ml"}, {"measurement": "TVC cfu/ml Day 13", "setting": "[2]; [8]", "result": 100, "unit": "cfu/ml"}, {"measurement": "TVC cfu/ml Day 1", "setting": "[2]; [9]", "result": ">1E5", "unit": "cfu/ml"}, {"measurement": "TVC cfu/ml Day 4", "setting": "[2]; [9]", "result": ">1E5", "unit": "cfu/ml"}, {"measurement": "TVC cfu/ml Day 1", "setting": "[2]; [10]", "result": "<100", "unit": "cfu/ml"}, {"measurement": "TVC cfu/ml Day 4", "setting": "[2]; [10]", "result": "<100", "unit": "cfu/ml"}, {"measurement": "TVC cfu/ml Day 1", "setting": "[2]; [11]", "result": "<100", "unit": "cfu/ml"}, {"measurement": "TVC cfu/ml Day 4", "setting": "[2]; [11]", "result": "<100", "unit": "cfu/ml"}, {"measurement": "TVC cfu/ml Day 9", "setting": "[2]; [11]", "result": "<100", "unit": "cfu/ml"}, {"measurement": "preservation of calcium carbonate slurries from bacterial growth, duration", "setting": "[2]; high urea concentrations, summary of tables 2 and 3, all inocula", "result": "at least 13 days"}, {"measurement": "TVC cfu/ml Day 4", "setting": "[3]; [12]", "result": "<100", "unit": "cfu/ml"}, {"measurement": "TVC cfu/ml Day 8", "setting": "[3]; [12]", "result": "<100", "unit": "cfu/ml"}, {"measurement": "TVC cfu/ml Day 13", "setting": "[3]; [12]", "result": "<100", "unit": "cfu/ml"}, {"measurement": "TVC cfu/ml Day 1", "setting": "[3]; Table 2, urea 2.75%, calcium carbonate 73.1%, water 24.15% w/w, detection limit 100 cfu/ml", "result": "<100", "unit": "cfu/ml"}, {"measurement": "TVC cfu/ml Day 1", "setting": "[3]; [13]", "result": "<100", "unit": "cfu/ml"}, {"measurement": "TVC cfu/ml Day 4", "setting": "[3]; [13]", "result": "<100", "unit": "cfu/ml"}, {"measurement": "TVC cfu/ml Day 8", "setting": "[3]; [13]", "result": "<100", "unit": "cfu/ml"}, {"measurement": "TVC cfu/ml Day 13", "setting": "[3]; [13]", "result": "<100", "unit": "cfu/ml"}, {"measurement": "TVC cfu/ml Day 4", "setting": "[3]; Table 3, urea 0.65%, calcium carbonate 75.7%, water 23.65% w/w", "result": "<100", "unit": "cfu/ml"}, {"measurement": "TVC cfu/ml Day 1", "setting": "[3]; Table 3, urea 0.65%, calcium carbonate 75.7%, water 23.65% w/w, detection limit 100 cfu/ml", "result": "<100", "unit": "cfu/ml"}, {"measurement": "TVC cfu/ml Day 1", "setting": "[3]; [14]", "result": "<100", "unit": "cfu/ml"}, {"measurement": "TVC cfu/ml Day 4", "setting": "[3]; [14]", "result": "<100", "unit": "cfu/ml"}, {"measurement": "TVC cfu/ml Day 1", "setting": "[3]; [15]", "result": "<100", "unit": "cfu/ml"}, {"measurement": "TVC cfu/ml Day 4", "setting": "[3]; [15]", "result": "<100", "unit": "cfu/ml"}, {"measurement": "TVC cfu/ml Day 9", "setting": "[3]; [15]", "result": "<100", "unit": "cfu/ml"}, {"measurement": "TVC cfu/ml Day 4", "setting": "[4]", "result": "<100", "unit": "cfu/ml"}, {"measurement": "TVC cfu/ml Day 8", "setting": "[4]", "result": 100, "unit": "cfu/ml"}, {"measurement": "TVC cfu/ml Day 11", "setting": "[4]", "result": "<100", "unit": "cfu/ml"}, {"measurement": "TVC cfu/ml Day 13", "setting": "[4]", "result": "<100", "unit": "cfu/ml"}, {"measurement": "TVC cfu/ml Day 1", "setting": "[4]; detection limit 100 cfu/ml", "result": "<100", "unit": "cfu/ml"}, {"measurement": "TVC cfu/ml Day 4", "setting": "[5]", "result": "<100", "unit": "cfu/ml"}, {"measurement": "TVC cfu/ml Day 8", "setting": "[5]", "result": "<100", "unit": "cfu/ml"}, {"measurement": "TVC cfu/ml Day 11", "setting": "[5]", "result": "<100", "unit": "cfu/ml"}, {"measurement": "TVC cfu/ml Day 13", "setting": "[5]", "result": "<100", "unit": "cfu/ml"}, {"measurement": "TVC cfu/ml Day 1", "setting": "[6]", "result": ">1E4", "unit": "cfu/ml"}, {"measurement": "TVC cfu/ml Day 4", "setting": "[6]", "result": 300, "unit": "cfu/ml"}, {"measurement": "TVC cfu/ml Day 8", "setting": "[6]", "result": "<100", "unit": "cfu/ml"}, {"measurement": "TVC cfu/ml Day 11", "setting": "[6]", "result": "<100", "unit": "cfu/ml"}, {"measurement": "TVC cfu/ml Day 13", "setting": "[6]", "result": "<100", "unit": "cfu/ml"}, {"measurement": "LD50", "setting": "rats", "result": 15000, "unit": "mg/kg"}]}]}
